Earlier results on three compounds are cited in patent EP0243248A1, “Compositions for the treatment of baldness and alopecia” (LABORATOIRES PHARMACEUTIQUES ROCHE-POSAY, priority 1986, dated 1987).

Each structure is given as a SMILES string.

For the data set the following is noted: for solubilité dans l'eau: water; for solubilité dans l'alcool: alcohol, in words; for solubilité dans les solutions alcalines / en milieu alcalin: alkaline solutions / alkaline medium.

Consider `O=C1NC(=O)C(c2ccccc2)(c2ccccc2)N1` [Phenytoïne, diphényl-5,5 imidazolidinedione-2,4], for which the “solubilité dans l'eau” value is listed as “pratiquement insoluble”.

As to `CC1=NS(=O)(=O)c2cc(Cl)ccc2N1` [diazoxyde, chloro-7 méthyl-3 benzothiadiazine 1, 2,4 dioxyde-1,1], the “solubilité dans l'alcool” value is on record as “solubles”, the “solubilité dans les solutions alcalines / en milieu alcalin” value was “solubles” and the “solubilité dans l'eau” value was “insolubles”.

As for `O=C1NC(=O)C(c2ccccc2)(c2ccccc2)N1` [diphénylhydantoï-nate de sodium], the “solubilité dans l'alcool” value is reported as “un peu soluble”, the “solubilité dans les solutions alcalines / en milieu alcalin” value is “soluble” and the “solubilité dans l'eau” value is reported as “un peu soluble”. In addition, where the note is “chloroform”, the “solubilité dans le chloroforme” value is reported as “insoluble”. Besides, under “ether”, the “solubilité dans l'ether” value is listed as “insoluble”.
